Laboratory results from US11897851B2, “Heterocyclic GLP-1 agonists” (Gasherbrum Bio, Inc., priority 2021, dated 2024).

Molecular target: T1, GLP-1 Receptor (Homo sapiens, UniProt P43220)
T1 construct: host or cells: HEK293/GLP1R/CRE-LUC (HEK293/CRE-Luc stably expressing the GLP-1 receptor)
Test: GLP-1R agonist cAMP stimulation assay (HEK293/GLP1R/CRE-LUC cells, Cisbio cAMP dynamic 2 kit);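 further: compounds tested in half-log serial dilution, cAMP detected with cAMP-d2 and anti-cAMP cryptate antibody reagents after 1 h at room temperature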
Format: cell-based
Settings: HEK293/CRE-Luc cell line stably expressing the GLP-1 Receptor; 1000 cells/well; 30 min at 37° C.; 0.5 mM IBMX, 0.1% BSA; read-out: GLP1R cAMP Stimulation DR: EC50

T1 sequence (P43220 24-463, species assumed): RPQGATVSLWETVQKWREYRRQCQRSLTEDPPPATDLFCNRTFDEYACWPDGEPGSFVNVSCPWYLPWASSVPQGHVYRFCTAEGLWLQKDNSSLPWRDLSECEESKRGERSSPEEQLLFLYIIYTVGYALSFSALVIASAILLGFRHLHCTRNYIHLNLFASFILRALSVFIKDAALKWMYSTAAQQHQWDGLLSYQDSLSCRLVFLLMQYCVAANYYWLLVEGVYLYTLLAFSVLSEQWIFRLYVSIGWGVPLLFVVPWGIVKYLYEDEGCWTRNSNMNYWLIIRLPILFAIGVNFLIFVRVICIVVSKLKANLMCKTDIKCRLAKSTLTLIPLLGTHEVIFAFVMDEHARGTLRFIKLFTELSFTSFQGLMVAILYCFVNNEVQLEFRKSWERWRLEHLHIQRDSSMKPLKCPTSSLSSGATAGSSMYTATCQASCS

EC50 | SMILES
0.19 nM | Cn1cncc1Cn1c(/C=C/C(=O)O)cnc1CN1CCC(c2cccc3c2OC[C@@H](c2ccc(Cl)cc2)O3)CC1 [Compound 206a, (R,E)-3-(2-((4-(2-(4-chlorophenyl)-2,3-dihydrobenzo[b][1,4]dioxin-5-yl)piperidin-1-yl)methyl)-1-((1-methyl-1H-imidazol-5-yl)methyl)-1H-imidazol-5-yl)acrylic acid]
6.4 nM | CC1(c2ccc(Cl)cc2F)Oc2cccc(C3CCN(Cc4ncc(/C=C/C(=O)O)n4CC4CN(S(C)(=O)=O)C4)CC3)c2O1 (stereo not drawn) [Compound 174, (E)-3-(2-((4-(2-(4-chloro-2-fluorophenyl)-2-methylbenzo[d][1,3]dioxol-4-yl)piperidin-1-yl)methyl)-1-((1-(methylsulfonyl)azetidin-3-yl)methyl)-1H-imidazol-5-yl)acrylic acid]
0.21 nM | Cc1ncoc1Cn1c(CCC(=O)O)cnc1CN1CCC(c2cccc3c2OC(C)(c2ccc(Cl)cc2F)O3)CC1 (stereo not drawn) [Compound 241, 3-(2-((4-(2-(4-chloro-2-fluorophenyl)-2-methylbenzo[d][1,3]dioxol-4-yl)piperidin-1-yl)methyl)-1-((4-methyloxazol-5-yl)methyl)-1H-imidazol-5-yl)propanoic acid]
0.026 nM | C[C@H]1CN(c2cccc3c2OC(C)(c2ccc(Cl)cc2F)O3)CCN1Cc1ncc(/C=C/C(=O)O)n1C[C@@H]1CCO1 (stereo partly drawn) [Compound 180, (E)-3-(2-(((2S)-4-(2-(4-chloro-2-fluorophenyl)-2-methylbenzo [d][1,3]dioxol-4-yl)-2-methylpiperazin-1-yl)methyl)-1-(((S)-oxetan-2-yl)methyl)-1H-imidazol-5-yl)acrylic acid]
0.016 nM | CCn1cncc1Cn1c(/C=C/C(=O)O)cnc1CN1CCC(c2cccc3c2OC[C@@H](c2ccc(Cl)cc2)O3)CC1 [Compound 207a, (R,E)-3-(2-((4-(2-(4-chlorophenyl)-2,3-dihydrobenzo [b][1,4]dioxin-5-yl)piperidin-1-yl)methyl)-1-((1-ethyl-1H-imidazol-5-yl)methyl)-1H-imidazol-5-yl)acrylic acid]
0.98 nM | CCc1ncccc1Cn1c(/C=C/C(=O)O)cnc1CN1CCC(c2cccc3c2OC(C)(c2ccc(Cl)cc2F)O3)CC1 (stereo not drawn) [Compound 148, (E)-3-(2-((4-(2-(4-chloro-2-fluorophenyl)-2-methylbenzo[d][1,3]dioxol-4-yl)piperidin-1-yl)methyl)-1-((2-ethylpyridin-3-yl)methyl)-1H-imidazol-5-yl)acrylic acid]
0.43 nM | CC1(c2ccc(Cl)cc2F)Oc2cccc(C3CCN(Cc4ncc(CCC(=O)O)n4CCOC(F)F)CC3)c2O1 (stereo not drawn) [Compound 238, 3-(2-((4-(2-(4-chloro-2-fluorophenyl)-2-methylbenzo[d][1,3]dioxol-4-yl)piperidin-1-yl)methyl)-1-(2-(difluoromethoxy)ethyl)-1H-imidazol-5-yl)propanoic acid]
13 nM | COCCn1c(Cc2noc(=O)[nH]2)cnc1CN1CCC(c2cccc3c2OC(C)(c2ccc(Cl)cc2F)O3)CC1 (stereo not drawn) [Compound 251, 3-((2-((4-(2-(4-chloro-2-fluorophenyl)-2-methylbenzo[d][1,3]dioxol-4-yl)piperidin-1-yl)methyl)-1-(2-methoxyethyl)-1H-imidazol-5-yl)methyl)-1,2,4-oxadiazol-5(4H)-one]
310 nM | Cn1c(C2CCC(C(=O)O)C2)cnc1CN1CCC(c2cccc3c2OC(C)(c2ccc(Cl)cc2F)O3)CC1 (stereo not drawn) [Compound 247, 3-(2-((4-(2-(4-chloro-2-fluorophenyl)-2-methylbenzo[d][1,3]dioxol-4-yl)piperidin-1-yl)methyl)-1-methyl-1H-imidazol-5-yl)cyclopentane-1-carboxylic acid]
0.13 nM | CC1(c2ccc(Cl)cc2F)Oc2cccc(C3CCN(Cc4ncc(/C=C/C(=O)O)n4[C@@H]4CCOC4)CC3)c2O1 (stereo partly drawn) [Compound 163, (E)-3-(2-((4-(2-(4-chloro-2-fluorophenyl)-2-methylbenzo[d][1,3]dioxol-4-yl)piperidin-1-yl)methyl)-1-((R)-tetrahydrofuran-3-yl)-1H-imidazol-5-yl)acrylic acid]
0.058 nM | COC1(Cn2c(/C=C/C(=O)O)cnc2CN2CCC(c3cccc4c3OC(C)(c3ccc(Cl)cc3F)O4)CC2)CC1 (stereo not drawn) [Compound 196, (E)-3-(2-((4-(2-(4-chloro-2-fluorophenyl)-2-methylbenzo[d][1,3]dioxol-4-yl)piperidin-1-yl)methyl)-1-((1-methoxycyclopropyl)methyl)-1H-imidazol-5-yl)acrylic acid]
17 nM | CC1(C)C[C@H](Cn2c(/C=C/C(=O)O)cnc2CN2CCC(c3cccc4c3O[C@@](C)(c3ccc(Cl)cc3F)O4)CC2)CO1 [Compound 171b, (E)-3-(2-((4-((S)-2-(4-chloro-2-fluorophenyl)-2-methylbenzo[d][1,3]dioxol-4-yl)piperidin-1-yl)methyl)-1-(((R)-5,5-dimethyltetrahydrofuran-3-yl)methyl)-1H-imidazol-5-yl)acrylic acid]
0.056 nM | CC(C)OCCn1c(/C=C/C(=O)O)cnc1CN1CCC(c2cccc3c2OC(C)(c2ccc(Cl)cc2F)O3)CC1 (stereo not drawn) [Compound 158, (E)-3-(2-((4-(2-(4-chloro-2-fluorophenyl)-2-methylbenzo[d][1,3]dioxol-4-yl)piperidin-1-yl)methyl)-1-(2-isopropoxyethyl)-1H-imidazol-5-yl)acrylic acid]

The remaining lines, values behind:

SMILES | EC50
C/C(=C\c1nnc(CN2CCC(c3cccc(OCc4ccc(Cl)cc4F)n3)CC2)n1C[C@@H]1CCO1)C(=O)O [Compound 226a, (S,E)-3-(5-((4-(6-((4-chloro-2-fluorobenzyl)oxy)pyridin-2-yl)piperidin-1-yl)methyl)-4-(oxetan-2-ylmethyl)-4H-1,2,4-triazol-3-yl)-2-methylacrylic acid] | 1.2 nM
CC1(c2ccc(Cl)cc2F)Oc2cccc(C3CCN(Cc4ncc(/C=C/C(=O)O)n4CC4CCC4(F)F)CC3)c2O1 (stereo not drawn) [Compound 167, (E)-3-(2-((4-(2-(4-chloro-2-fluorophenyl)-2-methylbenzo[d][1,3]dioxol-4-yl)piperidin-1-yl)methyl)-1-((2,2-difluorocyclobutyl)methyl)-1H-imidazol-5-yl)acrylic acid] | 0.065 nM
Cn1c(-c2nn[nH]n2)cnc1CN1CCC(c2cccc(OCc3ccc(Cl)cc3F)n2)CC1 [Compound 105, 2-((4-chloro-2-fluorobenzyl)oxy)-6-(1-((1-methyl-5-(2H-tetrazol-5-yl)-1H-imidazol-2-yl)methyl)piperidin-4-yl)pyridine] | 59.2 nM
CS(=O)(=O)CCn1c(/C=C/C(=O)O)cnc1CN1CCC(c2cccc(OCc3ccc(Cl)cc3F)n2)CC1 [Compound 212, (E)-3-(2-((4-(6-((4-chloro-2-fluorobenzyl)oxy)pyridin-2-yl)piperidin-1-yl)methyl)-1-(2-(methylsulfonyl)ethyl)-1H-imidazol-5-yl)acrylic acid] | 6.4 nM
CCn1cncc1Cn1c(CCC(=O)O)cnc1CN1CCC(c2cccc3c2OC[C@@H](c2ccc(Cl)cc2)O3)CC1 [Compound 245, (R)-3-(2-((4-(2-(4-chlorophenyl)-2,3-dihydrobenzo [b][1,4]dioxin-5-yl)piperidin-1-yl)methyl)-1-((1-ethyl-1H-imidazol-5-yl)methyl)-1H-imidazol-5-yl)propanoic acid] | 0.15 nM
Cc1cc(-c2nnc(C(F)(F)F)[nH]2)cnc1CN1CCC(c2cccc3c2OC(C)(c2ccc(Cl)cc2)O3)CC1 (stereo not drawn) [Compound 265, 2-({4-[2-(4-chlorophenyl)-2-methyl-2H-1,3-benzodioxol-4-yl]piperidin-1-yl}methyl)-3-methyl-5-[5-(trifluoromethyl)-4H-1,2,4-triazol-3-yl]pyridine] | 4.5 nM
Cn1c(C2CC2C(=O)O)cnc1CN1CCC(c2cccc(OCc3ccc(Cl)cc3F)n2)CC1 (stereo not drawn) [Compound 108, 2-(2-((4-(6-((4-chloro-2-fluorobenzyl)oxy)pyridin-2-yl)piperidin-1-yl)methyl)-1-methyl-1H-imidazol-5-yl)cyclopropanecarboxylic acid] | 28.2 nM
O=C(O)COc1ccc(CN2CCC(c3cccc(OCc4ccc(Cl)cc4F)n3)CC2)nc1 [Compound 119, 2-((6-((4-(6-((4-chloro-2-fluorobenzyl)oxy)pyridin-2-yl)piperidin-1-yl)methyl)pyridin-3-yl)oxy)acetic acid] | 1500 nM
COCCc1cc(-c2nnc(C(F)(F)F)[nH]2)cnc1CN1CCC(c2cccc3c2O[C@@](C)(c2ccc(C#N)cc2F)O3)CC1 [Compound 260, 3-fluoro-4-[(2S)-4-(1-{[3-(2-methoxyethyl)-5-[5-(trifluoromethyl)-4H-1,2,4-triazol-3-yl]pyridin-2-yl]methyl}piperidin-4-yl)-2-methyl-2H-1,3-benzodioxol-2-yl]benzonitrile] | 2.3 nM
C/C(=C\c1cnc(CN2CCC(c3cccc4c3O[C@@](C)(c3ccc(Cl)cc3)O4)CC2)n1C[C@@H]1CCO1)C(=O)O [Compound 134a, (E)-3-(2-((4-((S)-2-(4-chlorophenyl)-2-methylbenzo [d][1,3]dioxol-4-yl)piperidin-1-yl)methyl)-1-(((S)-oxetan-2-yl)methyl)-1H-imidazol-5-yl)-2-methylacrylic acid] | 0.21 nM
Fc1cc(Cl)ccc1COc1cccc(C2CCN(Cc3ccc(-c4nn[nH]n4)cn3)CC2)n1 [Compound 127, 2-((4-(6-((4-chloro-2-fluorobenzyl)oxy)pyridin-2-yl)piperidin-1-yl)methyl)-5-(2H-tetrazol-5-yl)pyridine] | 147 nM
Cc1cc(-c2nnn[nH]2)cnc1CN1CCC(c2cccc3c2OC(C)(c2ccc(Cl)cc2F)O3)CC1 (stereo not drawn) [Compound 253, 2-({4-[2-(4-chloro-2-fluorophenyl)-2-methyl-2H-1,3-benzodioxol-4-yl]piperidin-1-yl}methyl)-3-methyl-5-(1H-1,2,3,4-tetrazol-5-yl)pyridine] | 4 nM
O=C(O)/C=C/c1cnc(CN2CCC(c3cccc(OCc4ccc(Cl)cc4F)n3)CC2)n1CC1CCC1 [Compound 211, (E)-3-(2-((4-(6-((4-chloro-2-fluorobenzyl)oxy)pyridin-2-yl)piperidin-1-yl)methyl)-1-(cyclobutylmethyl)-1H-imidazol-5-yl)acrylic acid] | 0.54 nM
O=C(O)CCc1cnc(CN2CCC(c3cccc(OCc4ccc(Cl)cc4F)n3)CC2)n1CC1CCC1 [Compound 107] | 4.4 nM
